In PMC12289066, “Identification of glutathione transferase (GST P1) inhibitors via a high-throughput screening assay and implications as alternative treatment options for breast cancers” (PLOS One, 2025):
Where a name gives a salt, the structure may show the parent alone. Read-outs that look alike come from different tables or passages of the source.

Legend:
[1] = target: T1, GST P1-1 (Homo sapiens, UniProt P09211); assay: High-throughput GST P1-1 inhibition assay (384-well screen, CDNB/GSH); assay type: biochemical; details: compound 10 μM; score 0 = negative control (DMSO), 1 = positive control (EA 50 μM); average of duplicate
T1 construct: purchased Sigma-Aldrich
Experimental: (§1) Each drug compound was added to the respective well at a volume of 80 nL of 10 mM stock solution in DMSO, yielding a final compound concentration of 10 μM and a final DMSO concentration of 0.1%. Each plate’s first and last two columns were used as negative (no compound added – 80 nL per well of DMSO) and positive (80 nL of EA added with a final concentration of 50 μM) controls, respectively. The Gyger Certus Flex dispenser was set up using a freshly prepared 1 mM of GSH and 20 nM of GST P1-1, pH 7.4, in one syringe and 8 mM CDNB solution in pure ethanol in the other syringe. Into each well 80 μL of GST-GSH solution was dispensed and incubated at 25°C for 20 minutes before the reaction was initiated by the addition of 4 μL of CDNB solution. The plates were incubated for 2 h in the dark at 25°C and then the absorbance was of each well recorded on a BioTek Synergy NEO HTS multimode plate reader (Agilent®) at a wavelength of 340 nm.
The z’factor was calculated for each plate according to Zhang et al.. The Z-factor is a dimensionless, simple statistical characteristic for each HTS assay. This provides a valuable tool for the comparison and assessment of the quality of assays, and can be utilized in assay optimization and validation. For each plate, the concentration of product was normalized by assigning a score of 0 (0%) to the negative control (average of maximal concentration of product measured in the presence of enzyme without any inhibitor) and a score of 1 (100%) was assigned to the positive control (average minimal concentration of product measured in the presence of enzyme with the reference inhibitor, i.e., EA). The experiment was performed in duplicate and the score for each drug compound was calculated as an average ± standard deviation. […] An internal laboratory information management system (LIMS) was used for basic data processing, management, visualization, and statistical hit validation.

[2] = target: T1, GST P1-1; assay: Determination of IC50 for GST P1-1 enzyme (dose-response / reconfirmation assay); assay type: biochemical
Experimental: as §1
The IC50 of the GST P1-1 enzyme was determined for the 80 drug compounds with the highest score in the GST P1-1 screening assay. The assay conditions were used for the screening assay and each drug compound was tested at 8 different concentrations (μM) starting at 30 µM final assay concentration with a half-log dilution and 2 replicates per concentration.

[3] = system: MCF-7 cells; assay: MTT cytotoxicity assay, MCF-7; assay type: cell-based, human; details: Homo sapiens, MCF7
Experimental: (§2) L929, MCF-7, and MDA-MB-231 cell lines were cultured in DMEM GlutaMAX media containing 10% heat-inactivated FBS and 1% (v/v) penicillin-streptomycin at 37°C and CO2 (5%). Cytotoxicity was determined using a 3-(4,5-dimethyl 2-thiazolyl)-2,5-diphenyl-2H-tetrazolium bromide (MTT) assay. 100 μL aliquots and approximately 50’000 cells/well were added to each well of flat-bottomed 96-well plates and incubated for 24 h in a humidified chamber at 37°C under saturated air with a 5% CO2 atmosphere. Stock solutions of 10 mM drug compounds were prepared in DMSO and were sequentially diluted with the cell culture buffer to give a final DMSO concentration of 0.5%. The solutions were added to the 96-well plates in 100 μL aliquots and 100 μL of buffer was added as a control to give a final drug compound concentration range of 0 − 100 μM. The plates were incubated for a further 72 h under the same conditions as before. MTT (10 μL, 5 mg/mL in Dulbecco’s phosphate-buffered saline) was added to each well and the plates were incubated for a further 3 h under the same conditions as before. The culture medium was aspirated from each well and the purple formazan crystals, formed by the mitochondrial dehydrogenase activity of vital cells, were dissolved in 100 μL DMSO. The absorbance of the resulting solutions was measured at 570 and 630 nm using a SpectraMax M5e multimode microplate reader and SoftMax Pro software, version 6.2.2. As the absorbance is directly proportional to the number of surviving cells, the percentage of surviving cells was calculated from the absorbance of wells relative to the control. The reported IC50 values are based on the mean from four independent experiments, each comprising three replicates per concentration.

[4] = system: MDA-MB-231 cells; assay: MTT cytotoxicity assay, MDA-MB-231; assay type: cell-based, human; details: Homo sapiens, MDA-MB-231
Experimental: as §2

[5] = system: L929 cells; assay: MTT cytotoxicity assay, L929; assay type: cell-based, mouse; details: for selectivity towards the breast cancer cell lines: MCF-7 and MDA-MB-231 versus non-tumorigenic L929, 72 h MTT; for IC50: Mus musculus, L929, MTT, 72 h incubation, read-out: IC50 (average ± standard deviation) L929
Experimental: as §2, with “Cytotoxicity” for “L929, MCF-7, and MDA-MB-231 cell lines were cultured in DMEM GlutaMAX media containing 10% heat-inactivated FBS and 1% (v/v) penicillin-streptomycin at 37°C and CO2 (5%). Cytotoxicity”, “Stock solutions of 10 mM drug compounds were prepared in DMSO and were sequentially diluted with the cell culture buffer to give a final DMSO concentration of 0.5%. The solutions were added to the 96-well plates in 100 μL aliquots and 100 μL of buffer was added as a control to give a final drug compound concentration range of 0 − 100 μM.” left out

[6] = target: T1, GST P1-1; assay: Determination of inhibitor binding mechanism (kinetic GST P1-1 activity assay); assay type: biochemical; details: from Km and Vmax versus reaction without inhibitor
Experimental: The GST P1-1 concentration used in the assays was 0.02 U mL^-1.
1 mM GSH final concentration was used. The GST P1-1 was pre-incubated with the GSH for 20 minutes at room temperature before the addition of 12.5 μL of 4 mM solution of CDNB. The reaction rate was recorded against time using UV/VIS spectrophotometer (SpectraMax M5e from Molecular devices) at […].
The drug compounds’ inhibition mechanism was investigated using the kinetic GST P1-1 activity assay. Concentrations of CDNB ranged from 0–40 mM with the drug solution at a constant concentration of 5 μM. Experiments were performed in duplicate.
The Michaelis-Menten constant, Km, and […] Vmax were calculated using GraphPad Prism 9 software. To identify the type of inhibition the Michaelis-Menten equation was applied (Eq. 1): […]
where v0 is the initial velocity of the reaction, Vmax is the maximum velocity achieved by the reaction at maximum concentrations of substrate, [S] is the concentration of substrate, and Km is the substrate concentration at which the reaction velocity is half of the Vmax (Michaelis-Menten constant). The Michaelis-Menten equation predicts a hyperbolic relationship between initial velocity and substrate concentration, describing the kinetic behavior of enzymes. Evaluating the differences in Km and Vmax compared with the reaction without an inhibitor allows the competition type of an inhibitor to be identified. Competitive inhibitors present an increase in the Km and with Vmax unaffected. Non-competitive inhibitors present a […] Vmax.

[7] = Table 2, rounded values, read-out: IC50 GSTP1 enzymatic reaction
[8] = MTT, 72 h incubation, read-out: IC50 (average ± standard deviation) MCF-7
[9] = compound alone, read-out: Concentration IC50 isolated (MCF-7 cell line)
[10] = MTT, 72 h incubation, read-out: IC50 (average ± standard deviation) MDA-MB-231
[11] = compound alone, read-out: Concentration IC50 isolated (MDA-MB-231 cell line)

T1 sequence (P09211 2-210 limits assumed): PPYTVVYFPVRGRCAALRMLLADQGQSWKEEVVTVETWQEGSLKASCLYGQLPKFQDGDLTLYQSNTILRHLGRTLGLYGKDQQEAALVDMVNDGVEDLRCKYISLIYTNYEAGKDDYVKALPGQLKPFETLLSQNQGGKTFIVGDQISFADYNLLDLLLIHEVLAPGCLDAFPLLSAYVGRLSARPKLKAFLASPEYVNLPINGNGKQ

Compound	Score [1]	IC50 [2, 7] [µM]	Hill Slope (dose-response curve) ([2]; reconfirmation assay)	IC50 [3, 8] [µM]	IC50 [3, 9] [µM]	IC50 [4, 10] [µM]	IC50 [4, 11] [µM]	selectivity towards the breast cancer cell lines [5]	IC50 [5] [µM]	Inhibition mechanism [6]	IC50 ([2]; reconfirmation assay, Table S2, read-out: IC50 GSTP1) [µM]
CC(C)N(CCC(=O)c1ccc2ccccc2c1)Cc1ccccc1 [ZM 39923 (hydrochloride)]	0.788	1.5	1.56	4.3 ± 0.1	4.3	2.6 ± 0.1	2.6	reasonable degree of selectivity	8.2 ± 0.6	Competitive	
O=C1C(=Cc2cccnc2)C(=O)c2ccccc21 [PRT 4165]	0.890	1.3	1.2	59 ± 7	59	27 ± 6	27	reasonable degree of selectivity	> 100	Non-competitive	
C[C@H]1COC2=C1C(=O)C(=O)c1c2ccc2c1CCCC2(C)C [Cryptotanshinone 97.0%, Cryptotanshinone]	1.037	8.9	0.85	0.29 ± 0.04	0.29	2.9 ± 0.3	2.9	reasonable degree of selectivity	4.4 ± 0.3	Non-competitive	
CCc1ccc(/C=C2/SC(=S)NC2=O)cc1 [10058-F4]	0.731	2.8	1.37	14 ± 2	14	15 ± 4	15	highly selective	> 100	Non-competitive	2.75
